The results in this text go back to patent publication US11014920B2, “Factor XIIa inhibitors” (Merck Sharp & Dohme Corp., priority 2016, dated 2021).

The target in this assay is purified human Factor XIIa (Homo sapiens (Human), UniProt P00748). The assay is described as follows: Factor XIIa assay. The format is biochemical. Particulars: substrate n-Acetyl-Lys-Pro-Arg-AFC 100 μM, pH 7.4, read-out: FXIIa IC50. The protocol: “FXIIa IC50(nm)” is Human Factor XIIa IC50 (nm).
purified human Factor XIIa, sequence (P00748 373-615): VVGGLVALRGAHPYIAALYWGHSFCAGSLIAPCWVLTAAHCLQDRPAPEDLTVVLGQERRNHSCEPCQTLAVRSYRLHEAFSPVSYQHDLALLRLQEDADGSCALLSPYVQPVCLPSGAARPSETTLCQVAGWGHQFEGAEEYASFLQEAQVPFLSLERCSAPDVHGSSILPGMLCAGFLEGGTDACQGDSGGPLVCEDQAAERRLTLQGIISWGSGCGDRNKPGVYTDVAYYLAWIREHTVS
purified human Factor XIIa, sequence (P00748 20-372 partner): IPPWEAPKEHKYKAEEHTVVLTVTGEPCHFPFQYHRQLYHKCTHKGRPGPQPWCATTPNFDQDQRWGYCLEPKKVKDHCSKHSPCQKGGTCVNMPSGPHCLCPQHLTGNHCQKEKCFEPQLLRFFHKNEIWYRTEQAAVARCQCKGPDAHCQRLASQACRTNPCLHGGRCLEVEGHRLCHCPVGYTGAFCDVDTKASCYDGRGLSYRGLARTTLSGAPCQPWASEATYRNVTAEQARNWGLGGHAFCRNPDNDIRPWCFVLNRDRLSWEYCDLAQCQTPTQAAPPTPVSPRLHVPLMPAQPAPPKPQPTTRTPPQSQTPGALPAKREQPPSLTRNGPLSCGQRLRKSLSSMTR
The effectiveness of a compound of the present invention as an inhibitor of Coagulation Factor XIIa can be determined using a relevant purified serine protease, and an appropriate synthetic substrate. The rate of hydrolysis of the chromogenic or fluorogenic substrate by the relevant serine protease was measured both in the absence and presence of compounds of the present invention. Assays were conducted at room temperature or at 37° C. […] A decrease in the rate of fluorescence change in the presence of inhibitor is indicative of enzyme inhibition. Such methods are known to one skilled in the art. The results of this assay are expressed as the IC50, the inhibitor concentration causing a 50% decrease in Factor XIIa protease activity.
Factor XIIa activity determinations were made in 50 mM HEPES buffer containing 150 mM NaCl, 5 mM CaCl2, and 0.1% PEG 8000 (polyethylene glycol; JT Baker or Fisher Scientific) at pH 7.4. Determinations were made using purified human Factor XIIa at a final concentration of […] (Sekisui Diagnostics) and the synthetic substrate, n-Acetyl-Lys-Pro-Arg-AFC, TFA salt (Sigma # C6608) at a concentration of 100 μM.
Times required to achieve equilibration between enzyme and inhibitor were determined in control experiments. Initial velocities of product formation in the absence (Vo) or presence of inhibitor (Vi) were measured.
What is called IC50 is the concentration at which inhibition is half-maximal. As to `O=C(NCc1cccs1)[C@H]1CN(C(=O)[C@@H](CCCCNCC(F)(F)F)NC2CCCCC2)CC[C@H]1NC(=O)N1CCC2(CC1)CC2` [Compound 22, N-{(3S,4R)-1-[N~2~- cyclohexyl-N~6~- (2,2,2-trifluoroethyl)-D-lysyl]-3-[(thiophen-2-ylmethyl)carbamoyl]pi-peridin-4-yl}-6-azaspiro[2.5]octane-6-carboxamide], the IC50 is 0.0465 µM.

With `CS(=O)(=O)NCCCC[C@@H](NC1CCC2(CC1)CCN(Cc1ccccc1)C2)C(=O)N1CC[C@@H](NC(=O)N2CCC3(CC2)CC3)[C@@H](C(=O)NCc2cccs2)C1` (stereo partly drawn) [Compound 18, N-{(3S,4R)-1-[N~2~- (2-benzyl-2-azaspiro[4.5]dec-8-yl)-N~6~-(methylsulfonyl)-D-lysyl]-3-[(thiophen-2-ylmethyl)carbamoyl]pi-peridin-4-yl}-6-azaspiro[2.5]octane-6-carboxamide], the IC50 was found to be 0.0292 µM.

Turning to `Cc1cnc(C(=O)NC2CCN(C(=O)[C@@H](CC3CCCCC3)NC3CCCCC3)CC2C(=O)NCc2ccc(CN)cc2)s1` (stereo partly drawn) [Compound 2, N-[4-(aminomethyl)benzyl]-1-(N,3-dicyclohexyl-D-alanyl)-4-{[(5-methyl-1,3-thiazol-2-yl)carbonyl]amino}pi-peridine-3-carboxamide], the IC50 is 0.0733 µM.

As to `O=C(NCc1cccs1)[C@H]1CN(C(=O)[C@@H](CCCCN2CCCS2(=O)=O)NC2CCCCC2)CC[C@H]1NC(=O)N1CCC2(CC1)CC2` [Compound 17, N-{(3S,4R)-1-[N-cyclohexyl-6-(1,1-dioxidoisothiazolidin-2-yl)-D-norleucyl]-3-[(thiophen-2-ylmethyl)carbamoyl]pi-peridin-4-yl}-6-azaspiro[2.5]octane-6-carboxamide], the concentration for half-maximal inhibition (IC50) was found to be 0.0115 µM.

Consider `Cc1cnc(C(=O)N[C@@H]2CCN(C(=O)[C@@H](CC3CCCCC3)NC3CCCCC3)C[C@@H]2C(=O)NCc2ccc3[nH]cc(Cl)c3c2)s1` [Compound 1, (3S,4R)-N-[(3-chloro-1H-indol-5-yl)methyl]-1-(N,3-dicyclohexyl-D-alanyl)-4-{[(5-methyl-1,3-thiazol-2-yl)carbonyl]amino}pi-peridine-3-carboxamide], for which the IC50 was 0.0492 µM.

Consider `NCCCC[C@@H](NC1CCCCC1)C(=O)N1CC[C@@H](NC(=O)N2CCC3(CC2)CC3)[C@@H](C(=O)NCc2ccccc2)C1` [Compound 13, N-[(3S,4R)-3-(benzylcarbamoyl)-1-(N~2~-cyclohexyl-D-lysyl)piperidin-4-yl]-6-azaspiro[2.5]octane-6-carboxamide], for which the IC50 was 0.0983 µM.

For the compound `CS(=O)(=O)NCCCC[C@@H](NC1CCCCC1)C(=O)N1CC[C@@H](NC(=O)N2CCC3(CC2)CC3)[C@@H](C(=O)NCc2cccs2)C1` [Compound 23, N-{(3S,4R)-1-[N~2~- cyclohexyl-N~6~- (methylsulfonyl)-D-lysyl]-3-[(thiophen-2-ylmethyl)carbamoyl]pi-peridin-4-yl}-6-azaspiro[2.5]octane-6-carboxamide], the IC50 was 0.0524 µM.

As for `NCCCC[C@@H](NC1CCCCC1)C(=O)N1CC[C@@H](NC(=O)N2CCC3(CC2)CC3)[C@@H](C(=O)NCc2ccc(CN)cc2)C1` [Compound 14, N-[(3S,4R)-3-{[4-(amino-methyl)benzyl]carbamoyl}-1-(N~2~-cyclohexyl-D-lysyl)piperidin-4-yl]-6-azaspiro[2.5]octane-6-carboxamide], the IC50 amounted to 0.0187 µM.

For `CN(C)CCCC[C@@H](NC1CCCCC1)C(=O)N1CC[C@@H](NC(=O)N2CCCc3ccccc32)[C@@H](C(=O)NCc2cccs2)C1` [Compound 28, N-{(3S,4R)-1-(N~2~- cyclohexyl-N~6~,N~6~-dimethyl-D-lysyl)-3-[(thiophen-2-ylmethyl)carbamoyl]pi-peridin-4-yl}-3,4-dihydroquinoline-1(2H)-carboxamide], the IC50 turned out to be 0.102 µM.

Consider `CN(C)CCCC[C@H](C(=O)N1CC[C@@H](NC(=O)c2ccc(F)c(F)c2)[C@@H](C(=O)NCc2cccs2)C1)N(C)C1CCCCC1` [Compound 5, (3S,4R)-1-(N~2~- cyclohexyl-N~2~,N~6~,N~6~- trimethyl-D-lysyl)-4-{[(3,4-difluoro-phenyl)carbonyl]amino}-N-(thiophen-2-ylmethyl)piperidine-3-carboxamide], for which the IC50 is 0.0716 µM.

For the compound `Cc1ccc(C(=O)N[C@@H]2CCN(C(=O)[C@@H](CCCCN(C)C)N(C)C3CCCCC3)C[C@@H]2C(=O)NCc2cccs2)c(F)c1` [Compound 29, (3S,4R)-1-(N~2~- cyclohexyl-N~2~,N~6~,N~6~- trimethyl-D-lysyl)-4-{[(2-fluoro-4-methyl-phenyl)carbonyl]amino}-N-(thiophen-2-ylmethyl)piperidine-3-carboxamide], the IC50 was found to be 0.0376 µM.

On to `CN(C)CCCC[C@@H](NC1CCCCC1)C(=O)N1CC[C@@H](NC(=O)N2CCC3(CC2)CC3)[C@@H](C(=O)NCc2cccs2)C1` [Compound 34, N-{(3S,4R)-1-(N~2~- cyclohexyl-N~6~,N~6~-dimethyl-D-lysyl)-3-[(thiophen-2-ylmethyl)carbamoyl]pi-peridin-4-yl}-6-azaspiro[2.5]octane-6-carboxamide], for which the IC50 was determined as 0.0057 µM.
